Source: publication PMC2150373, “Phase I study of the mitomycin C analogue BMS-181174” (British Journal of Cancer, 1998)
Like-named read-outs stand apart in the source and are kept apart here.

Experiments:
[1] = system: patients with histologically proven advanced cancer
Procedure: (§1) In a phase I study of 82 patients with confirmed malignancy, we administered BMS-181174 at doses of 0.8-75 mg m-2 by intravenous injection every 28 days. At least three patients were evaluated at each dose level, and 174 courses were administered. […] BMS- 181174, also known as BMY-25067, is a semi-synthetic analogue of MMC created by substitution of the […] amino group by a nitrophenyl disulphide moiety (Figure 1). […] It is not known what form of BMS-181174 enters cells. However, it is possible that, after systemic administration, several forms of the drug in addition to the parent compound may be present, including mixed disulphides with endogenous thiols (such as cysteine, glutathione and methionine), methylated TEMMC and TEMMC disulphide. […] The anti-tumour effects of BMS-1 81174 have been evaluated in vivo (Bradner et al, 1990). […] The selection of the starting dose for the clinical study was based on the toxic low dose (TLD) in the dog.

[2] = system: histologically proven advanced cancer
Procedure: as §1

ferrets = details: ref Bradner et al, 1990; cited from earlier work
[3] = Pharmacokinetics of total TEMMC in plasma (HPLC, non-compartmental)
Procedure: as §1

B 16 melanoma = details: drug and tumour both intraperitoneal, or i.v. against subcutaneous tumour; ref Bradner et al, 1990; cited from earlier work
mice [4] = details: respective maximum non-lethal doses in mice; ref Bradner et al, 1990; cited from earlier work
[5] = preliminary in vitro studies; presumably disulphide exchange with thiols; cited from earlier work
mice, rats and dogs = details: cited from earlier work
mice [6] = details: single intravenous dose, ref Nicaise and Usakewicz, 1989; cited from earlier work
rats = details: of three species tested (mice, rats and dogs) in rats only; ref Bregman et al, 1989; cited from earlier work
[7] = system: subline of L1210 partly resistant to MMC; details: ref Bradner et al, 1990; cited from earlier work
dog = details: ref Nicaise and Usakewicz, 1989; cited from earlier work
[8] = system: MMC-resistant tumour cell lines; details: in vitro, ref Rockwell et al, 1995, cited from earlier work
[9] = system: highly MMC-resistant P388; details: ref Bradner et al, 1990; cited from earlier work
[10] = system: patients with solid tumors; details: similar doses given by 6-h infusion; ref Planting et al, 1994; cited from earlier work
[11] = 65 mg m-2, 12 patients all pretreated with chemotherapy
[12] = 75 mg m-2, 14 patients with no prior chemotherapy
[13] = 75 mg m-2, six previously treated patients

For `CO[C@@]12[C@H](COC(N)=O)C3=C(C(=O)C(C)=C(NCCSSc4ccc([N+](=O)[O-])cc4)C3=O)N1C[C@@H]1N[C@@H]12` [BMS-181174, N-7[2-(4-nitrophenyldithio)ethyl] mitomycin C], the “Thrombophlebitis, worst grade 0, no. of patients” value ([1]; 65.0 mg m-2, 12 patients) was 7, the “Thrombophlebitis, worst grade 1, no. of patients” value ([1]; 65.0 mg m-2, 12 patients) was 0 and the “Thrombophlebitis, worst grade 2, no. of patients” value ([1]; 65.0 mg m-2, 12 patients) was 4. The “Thrombophlebitis, worst grade 3, no. of patients” value ([1]; 65.0 mg m-2, 12 patients) was 1, the “Thrombophlebitis, worst grade 4, no. of patients” value ([1]; 65.0 mg m-2, 12 patients) was 1 and the “grade 4 anaemia, incidence” value [1, 11] was 8%. The “grade 4 thrombocytopenia, incidence” value [1, 11] was 17%, the “grade 3-4 anaemia, incidence” value [1, 12] was 7% and the “grade 3-4 neutropenia, incidence” value [1, 12] was 7%. The “grade 3-4 thrombocytopenia, incidence” value [1, 12] was 21%, the “patients with grade 4 thrombocytopenia (total)” value ([1]; 75 mg m-2, 20 patients) was “eight” and the “Thrombophlebitis, worst grade 0, no. of patients” value ([1]; 75.0 mg m-2, 20 patients) was 12. The “Thrombophlebitis, worst grade 1, no. of patients” value ([1]; 75.0 mg m-2, 20 patients) was 0, the “Thrombophlebitis, worst grade 2, no. of patients” value ([1]; 75.0 mg m-2, 20 patients) was 3 and the “Thrombophlebitis, worst grade 3, no. of patients” value ([1]; 75.0 mg m-2, 20 patients) was 3. For the same molecule, the “Thrombophlebitis, worst grade 4, no. of patients” value ([1]; 75.0 mg m-2, 20 patients) was 2, the “grade 3-4 anaemia, patients” value [1, 13] was “none” and the “grade 3-4 neutropenia, incidence” value [1, 13] was 33%. The “grade 3-4 thrombocytopenia, incidence” value [1, 13] was 83%, the “thrombophlebitis, incidence” value ([1]; 31 patients treated at 7.5-50 mg m-2, generally grade 1-2) was 26% and the “thrombophlebitis of grade 3-4, incidence” value ([1]; 32 evaluable patients treated at 65-75 mg m-2) was 22%. The “treatment discontinued because of toxicity” value ([1]; 32 patients at 65-75 mg m-2) was 53%, the “significant reduction in LVEF, incidence” value ([1]; 62 evaluable patients, all dose levels) was 15% and the “patients who died suddenly with pneumonia/pneumonitis thought drug-related” value ([1]; 65-75 mg m-2) was “Three”. For the same molecule, the “median nadir times for neutropenia” value ([1]; 65-75 mg m-2 (discussion)) was 15 to 19 days, the “nadirs for thrombocytopenia (median time)” value ([1]; 65-75 mg m-2 (discussion)) was 16 to 24 days and the “Haemoglobin, worst WHO grade 1, no. of patients” value ([1]; 75-T, 6 patients) was 2. For the same molecule, the “Haemoglobin, worst WHO grade 2, no. of patients” value ([1]; 75-T, 6 patients) was 4, the “Haemoglobin, worst WHO grade 3, no. of patients” value ([1]; 75-T, 6 patients) was 0 and the “Haemoglobin, worst WHO grade 4, no. of patients” value ([1]; 75-T, 6 patients) was 0. The “Neutrophils, worst WHO grade 0, no. of patients” value ([1]; 75-T, 6 patients) was 1, the “Neutrophils, worst WHO grade 1, no. of patients” value ([1]; 75-T, 6 patients) was 1 and the “Neutrophils, worst WHO grade 2, no. of patients” value ([1]; 75-T, 6 patients) was 2. The “Neutrophils, worst WHO grade 3, no. of patients” value ([1]; 75-T, 6 patients) was 2, the “Neutrophils, worst WHO grade 4, no. of patients” value ([1]; 75-T, 6 patients) was 0 and the “Platelets, worst WHO grade 0, no. of patients” value ([1]; 75-T, 6 patients) was 1. The “Platelets, worst WHO grade 1, no. of patients” value ([1]; 75-T, 6 patients) was 0, the “Platelets, worst WHO grade 2, no. of patients” value ([1]; 75-T, 6 patients) was 0 and the “Platelets, worst WHO grade 3, no. of patients” value ([1]; 75-T, 6 patients) was 2. For the same molecule, the “Platelets, worst WHO grade 4, no. of patients” value ([1]; 75-T, 6 patients) was 3, the “Haemoglobin, worst WHO grade 0, no. of patients” value ([1]; 75-T: 75 mg m-2, prior chemotherapy, 6 patients) was 0 and the “Haemoglobin, worst WHO grade 1, no. of patients” value ([1]; 75-U, 14 patients) was 3. The “Haemoglobin, worst WHO grade 2, no. of patients” value ([1]; 75-U, 14 patients) was 7, the “Haemoglobin, worst WHO grade 3, no. of patients” value ([1]; 75-U, 14 patients) was 1 and the “Haemoglobin, worst WHO grade 4, no. of patients” value ([1]; 75-U, 14 patients) was 0. For the same molecule, the “Neutrophils, worst WHO grade 0, no. of patients” value ([1]; 75-U, 14 patients) was 10, the “Neutrophils, worst WHO grade 1, no. of patients” value ([1]; 75-U, 14 patients) was 1 and the “Neutrophils, worst WHO grade 2, no. of patients” value ([1]; 75-U, 14 patients) was 2. For the same molecule, the “Neutrophils, worst WHO grade 3, no. of patients” value ([1]; 75-U, 14 patients) was 0, the “Neutrophils, worst WHO grade 4, no. of patients” value ([1]; 75-U, 14 patients) was 1 and the “Platelets, worst WHO grade 0, no. of patients” value ([1]; 75-U, 14 patients) was 7. For the same molecule, the “Platelets, worst WHO grade 1, no. of patients” value ([1]; 75-U, 14 patients) was 1, the “Platelets, worst WHO grade 2, no. of patients” value ([1]; 75-U, 14 patients) was 3 and the “Platelets, worst WHO grade 3, no. of patients” value ([1]; 75-U, 14 patients) was 0. For the same molecule, the “Platelets, worst WHO grade 4, no. of patients” value ([1]; 75-U, 14 patients) was 3, the “Haemoglobin, worst WHO grade 0, no. of patients” value ([1]; 75-U: 75 mg m-2, previously untreated, 14 patients) was 3 and the “possible renal toxicity (rise in serum creatinine), incidence” value ([1]; 82 patients, all dose levels) was 4%. For the same molecule, the possible treatment-related deaths ([1]; 82 patients, all dose levels) was “four”, the “grade 1-2 nausea, number of patients” value ([1]; 82 patients, with prophylactic antiemetics) was 21 and the “moderate or severe emesis (grade 2-3), number of patients” value ([1]; 82 patients, thirteen of them treated at 65-75 mg m-2) was “fifteen”. For the same molecule, the “time for platelet counts to recover to normal, median” value ([1]; after 65 mg m-2, range 21-45 days) was 25 days, the “time for granulocyte counts to recover to normal, median” value ([1]; after 65 mg m-2, range 27-42 days) was 34.5 days and the “time for granulocyte counts to recover to normal, median” value ([1]; after 75 mg m-2, range 19-43) was 22.5 days. The “time for platelet counts to recover to normal, median” value ([1]; after 75 mg m-2, range 20-46) was 29.5 days, the “time to nadir blood counts, median” value ([1]; all dose levels) was 15 to 22 days and the maximum-tolerated dose ([1]; chemotherapy-naive patients, i.v. every 28 days) was 75 mg m-2. The “Significant reduction in LVEF, no. of patients” value ([1]; dose 0.8 mg m-2, 4 patients (3 not evaluable)) was 0, the “Significant reduction in LVEF, no. of patients” value ([1]; dose 1.6 mg m-2, 3 patients (1 not evaluable)) was 1 and the “Significant reduction in LVEF, no. of patients” value ([1]; dose 3.2 mg m-2, 7 patients (0 not evaluable)) was 2. The “Significant reduction in LVEF, no. of patients” value ([1]; dose 5.0 mg m-2, 5 patients (1 not evaluable)) was 1, the “Significant reduction in LVEF, no. of patients” value ([1]; dose 7.5 mg m-2, 5 patients (0 not evaluable)) was 0 and the “Significant reduction in LVEF, no. of patients” value ([1]; dose 11.5 mg m-2, 7 patients (2 not evaluable)) was 0. The “Significant reduction in LVEF, no. of patients” value ([1]; dose 19 mg m-2, 8 patients (3 not evaluable)) was 0, the “Significant reduction in LVEF, no. of patients” value ([1]; dose 32 mg m-2, 5 patients (1 not evaluable)) was 1 and the “Significant reduction in LVEF, no. of patients” value ([1]; dose 50 mg m-2, 6 patients (2 not evaluable)) was 1. The “Significant reduction in LVEF, no. of patients” value ([1]; dose 65 mg m-2, 12 patients (3 not evaluable)) was 0, the “Significant reduction in LVEF, no. of patients” value ([1]; dose 75 mg m-2, 20 patients (4 not evaluable)) was 3 and the “thrombophlebitis of grades 1-3, incidence” value ([1]; dose levels 0.8-19 mg m-2, bolus injection) was 13%. The dose-limiting toxicity ([1]; i.v. every 28 days) was “myelosuppression”, the maximum-tolerated dose ([1]; previously treated patients, i.v. every 28 days) was 65 mg m-2 and the “significant reduction in LVEF, incidence” value ([1]; sixteen evaluable patients at 75 mg m-2) was 19%. The “haematological toxicity (grade >3)” value ([1]; up to 50 mg m-2) was “no significant”, the partial response rate ([2]; 3 out of 32 patients treated at 65-75 mg m-2) was 9% and the “treatment discontinued for progressive disease” value ([2]; 22 out of 32 patients at 65-75 mg m-2) was 69%. The “treatment discontinued because of progressive disease” value ([2]; 44 of 50 patients treated at 0.8-50 mg m-2) was 88%, the partial response rate ([2]; 50 patients treated at 0.8-50 mg m-2) was 2% and the “minor response (MR), no. of patients” value ([2]; Total, 82 patients) was 1. The “partial response (PR), no. of patients” value ([2]; Total, 82 patients) was 4, the “stable disease (SD), no. of patients” value ([2]; Total, 82 patients) was 8 and the “progressive disease (PD), no. of patients” value ([2]; Total, 82 patients (10 not evaluable)) was 59. For the same molecule, the overall response rate ([2]; all dose levels (discussion)) was 6%, the partial response rate ([2]; overall, 4 out of 82 patients, 0.8-75 mg m-2) was 5% and the “neutropenia and thrombocytopenia compared with MMC” value (ferrets) was “less neutropenic and much less thrombocytopenic”. The “plasma levels of TEMMC” value ([3]; 0.8 and 1.6 mg m-2 dose levels, assay lower limit of quantitation 50 ng ml-1) was “not sufficiently sensitive to quantify plasma levels”, the “dose linearity of pharmacokinetics” value ([3]; in vivo) was “dose linear” and the “anti-tumour activity compared with MMC” value (B 16 melanoma) was “superior activity”. For the same molecule, the “neutropenia compared with MMC” value (mice [4]) was “less neutropenia than MMC”, the disappearance in plasma [5] was “rapidly” and the preclinical toxicity (mice, rats and dogs; preclinical testing of MMC analogues, ref Bregman et al, 1989) was “myelosuppression and proteinuria”. The “myelosuppression compared with parent compound MMC” value (mice, rats and dogs; preclinical, ref Doyle and Vyas, 1990) was “marginally less myelosuppressive than the parent compound”, the LD10 (mice [6]) was 24.9 mg m-2 and the cardiotoxicity (rats) was “dose-related cardiotoxicity”. For the same molecule, the anti-tumour activity [7] was “slight activity”, the “toxic low dose (TLD)” value (dog) was 2.5 mg m-2 and the “toxicity in hypoxic versus aerobic conditions” value ([8]; unlike MMC) was “not more toxic in hypoxic than aerobic conditions”. The “activity against MMC-resistant tumour cell lines” value [8] was “active”, the anti-tumour activity [9] was “inactive” and the “toxicity of 6-h infusion” value [10] was “local venous toxicity with thrombophlebitis and venospasm”.
